Data as given in patent publication US9434747B2, “Methods of treating diabetes” (Medivation Technologies, Inc., priority 2011, dated 2016).

What was measured:
[1] = target: T1, human recombinant adrenergic α2A receptor (Homo sapiens, UniProt P08913); assay: Radioligand binding assay, adrenergic α2A ([3H]MK-912); settings: compound at 0.1 μM; 1 nM [3H]MK-912; Sf9 cells; read-out: Percentage inhibition of ligand binding, Adrenergic α2A
T1 construct: expressed in transfected cells; host or cells: insect Sf9 cells
T1 sequence (P08913 1-465): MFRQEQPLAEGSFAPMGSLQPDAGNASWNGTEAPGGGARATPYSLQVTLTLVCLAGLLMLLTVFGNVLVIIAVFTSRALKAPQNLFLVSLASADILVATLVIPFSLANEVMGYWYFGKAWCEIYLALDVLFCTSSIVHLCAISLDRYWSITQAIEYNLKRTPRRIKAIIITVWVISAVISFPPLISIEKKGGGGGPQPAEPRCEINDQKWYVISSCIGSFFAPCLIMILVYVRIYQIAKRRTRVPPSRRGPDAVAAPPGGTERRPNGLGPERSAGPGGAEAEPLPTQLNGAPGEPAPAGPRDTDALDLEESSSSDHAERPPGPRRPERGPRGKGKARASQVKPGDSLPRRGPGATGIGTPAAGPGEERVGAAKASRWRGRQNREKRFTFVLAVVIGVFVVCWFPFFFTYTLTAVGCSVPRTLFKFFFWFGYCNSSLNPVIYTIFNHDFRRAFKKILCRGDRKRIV
Experimental: To evaluate in radioligand binding assays the activity of compounds, human recombinant adrenergic α2A receptor expressed in insect Sf9 cells (Uhlen, S. et al, J. Pharmacol. Exp. Ther. 271:1558, 1994) in a modified Tris-HCl buffer (50 mM Tris-HCl, pH 7.4, 12.5 mM MgCl2, 2 mM EDTA) was used. Compounds were incubated with 1 nM [^3H]MK-912 for 60 min at 25° C. MK912 is (2S-trans)-1,3,4,5′,6,6′,7,12b-octahydro-1′,3′-dimethyl-spiro[2H-benzofuro[2,3-a]quinolizine-2,4′(1′H)-pyrimidin]-2′(3′H)-one hydrochloride. Non-specific binding was estimated in the presence of 10 μM WB-4101 (2-(2,6-Dimethoxyphenoxyethyl)aminomethyl-1,4-benzodioxane hydrochloride). Receptor proteins were filtered and washed, the filters were then counted to determine [^3H]MK-912 specifically bound. Compounds were screened at 1 μM or lower, using 1% DMSO as vehicle. Compounds were tested in this biochemical assay and percent inhibition of specific binding was determined. Biochemical assay results are presented as the percent inhibition of specific binding in Tables B1A-B1D.

[2] = target: T2, human recombinant adrenergic α2B receptor (Homo sapiens, UniProt P18089); assay: Radioligand binding assay, adrenergic α2B ([3H]Rauwolscine); settings: compound at 0.1 μM; 2.5 nM [3H]Rauwolscine; CHO-K1 cells; read-out: Percentage inhibition of ligand binding, Adrenergic α2B
T2 construct: expressed in transfected cells; host or cells: Chinese hamster ovary (CHO) K1 cells
T2 sequence (P18089 1-450): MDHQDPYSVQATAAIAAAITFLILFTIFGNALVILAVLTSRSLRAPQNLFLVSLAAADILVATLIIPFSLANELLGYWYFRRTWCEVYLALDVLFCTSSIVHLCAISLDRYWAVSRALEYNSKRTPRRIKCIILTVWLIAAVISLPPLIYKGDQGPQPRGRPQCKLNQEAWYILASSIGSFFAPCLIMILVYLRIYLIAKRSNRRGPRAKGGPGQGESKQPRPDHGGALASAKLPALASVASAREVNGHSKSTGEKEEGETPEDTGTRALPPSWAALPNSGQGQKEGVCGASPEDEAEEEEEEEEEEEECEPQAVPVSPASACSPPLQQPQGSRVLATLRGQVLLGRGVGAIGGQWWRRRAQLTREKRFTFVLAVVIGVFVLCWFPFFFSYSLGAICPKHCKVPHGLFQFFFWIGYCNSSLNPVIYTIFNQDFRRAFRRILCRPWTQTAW
Experimental: To evaluate in radioligand binding assays the activity of compounds, human recombinant adrenergic α2B receptor expressed in Chinese hamster ovary (CHO) K1 cells (Uhlen, S. et al, Eur. J. Pharmacol. 343(1):93, 1998) in a modified Tris-HCl buffer (50 mM Tris-HCl, pH 7.4, 12.5 mM MgCl2, 1 mM EDTA, 0.2% BSA) was used. Compounds were incubated with 2.5 nM [^3H]Rauwolscine for 60 min at 25° C. Non-specific binding was estimated in the presence of 10 μM Prazosin. Receptor proteins were filtered and washed, the filters were then counted to determine [^3H]Rauwolscine specifically bound. Compounds were screened at 1 μM or lower, using 1% DMSO as vehicle. Compounds were tested in this biochemical assay and percent inhibition of specific binding was determined. Biochemical assay results are presented as the percent inhibition of specific binding in Tables B1A-B1D.

[3] = target: T3, rat adrenergic α1B receptor (Rattus norvegicus, UniProt P15823); assay: Radioligand binding assay, adrenergic α1B ([3H]Prazosin); settings: compound at 0.1 μM; 0.25 nM [3H]Prazosin; Wistar rat liver; read-out: Percentage inhibition of ligand binding, Adrenergic α1B
T3 construct: rat adrenergic α1B receptor obtained from Wistar Rat liver; from tissue; host or cells: Wistar rat liver
T3 sequence (P15823 1-515): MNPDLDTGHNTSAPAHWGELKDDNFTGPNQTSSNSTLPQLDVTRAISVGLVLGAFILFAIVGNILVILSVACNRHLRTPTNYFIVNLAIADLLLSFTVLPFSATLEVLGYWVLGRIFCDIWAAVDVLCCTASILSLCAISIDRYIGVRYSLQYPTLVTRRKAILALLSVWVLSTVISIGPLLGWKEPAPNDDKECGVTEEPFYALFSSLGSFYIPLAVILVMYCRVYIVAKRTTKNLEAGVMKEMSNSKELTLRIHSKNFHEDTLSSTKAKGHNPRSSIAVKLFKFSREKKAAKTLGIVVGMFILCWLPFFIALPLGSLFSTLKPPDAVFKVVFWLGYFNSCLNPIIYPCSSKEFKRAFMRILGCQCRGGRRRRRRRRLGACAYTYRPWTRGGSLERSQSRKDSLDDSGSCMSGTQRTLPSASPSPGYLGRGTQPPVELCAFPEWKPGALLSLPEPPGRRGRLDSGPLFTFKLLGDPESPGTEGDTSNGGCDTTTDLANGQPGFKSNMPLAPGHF
Experimental: To evaluate in radioligand binding assays the activity of compounds, rat adrenergic α1B receptor obtained from Wistar Rat liver (Garcia-S'ainz, J. et al, Biochem. Biophys. Res. Commun. 186:760, 1992; Michel, A. et al, Br. J. Pharmacol. 98:883, 1989) in a modified Tris-HCl buffer (50 mM Tris-HCl buffer, pH 7.4, 0.5 mM EDTA) was used. Compounds were incubated with 0.25 nM [^3H]Prazosin for 60 min at 25° C. Non-specific binding was estimated in the presence of 10 μM phentolamine. Receptor proteins were filtered and washed, the filters were then counted to determine [^3H]Prazosin specifically bound. Compounds were screened at 1 μM or lower, using 1% DMSO as vehicle. Compounds were tested in this biochemical assay and percent inhibition of specific binding was determined. Biochemical assay results are presented as the percent inhibition of specific binding in Tables B1A-B1D.

[4] = target: T4, human recombinant adrenergic α1D receptor (Homo sapiens, UniProt P25100); assay: Radioligand binding assay, adrenergic α1D ([3H]Prazosin); settings: compound at 0.1 μM; 0.6 nM [3H]Prazosin; HEK-293 cells; read-out: Percentage inhibition of ligand binding, Adrenergic α1D
T4 construct: expressed in transfected cells; host or cells: human embryonic kidney (HEK-293) cells
T4 sequence (P25100 1-572): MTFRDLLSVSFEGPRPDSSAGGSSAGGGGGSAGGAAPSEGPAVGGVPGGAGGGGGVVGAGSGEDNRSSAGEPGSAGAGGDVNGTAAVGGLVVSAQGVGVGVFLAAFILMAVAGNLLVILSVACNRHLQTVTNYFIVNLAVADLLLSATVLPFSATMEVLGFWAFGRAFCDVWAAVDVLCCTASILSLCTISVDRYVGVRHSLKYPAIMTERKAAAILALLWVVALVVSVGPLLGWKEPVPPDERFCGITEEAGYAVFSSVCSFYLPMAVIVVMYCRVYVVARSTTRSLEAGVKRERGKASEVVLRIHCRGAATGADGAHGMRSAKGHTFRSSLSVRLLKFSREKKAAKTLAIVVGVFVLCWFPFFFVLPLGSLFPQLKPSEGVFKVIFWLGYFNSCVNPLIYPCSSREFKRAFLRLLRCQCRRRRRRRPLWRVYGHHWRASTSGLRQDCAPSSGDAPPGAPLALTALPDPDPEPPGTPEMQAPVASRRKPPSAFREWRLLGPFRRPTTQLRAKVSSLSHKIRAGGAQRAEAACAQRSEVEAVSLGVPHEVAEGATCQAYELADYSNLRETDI
Experimental: To evaluate in radioligand binding assays the activity of compounds of the invention, human recombinant adrenergic α1D receptor expressed in human embryonic kidney (HEK-293) cells (Kenny, B. et al, Br. J. Pharmacol. 115(6):981, 1995) in a 50 mM Tris-HCl buffer, pH 7.4, was used. Compounds were incubated with 0.6 nM [3H]Prazosin for 60 min at 25° C. Non-specific binding was estimated in the presence of 10 μM phentolamine. Receptor proteins were filtered and washed, the filters were then counted to determine [3H]Prazosin specifically bound. Compounds were screened at 1 μM or lower, using 1% DMSO as vehicle. Biochemical assay results are presented as the percent inhibition of specific binding in Tables B1A-B1D.

inhibition at 0.1 µM [1] | inhibition at 0.1 µM [2] | inhibition at 0.1 µM [3] | inhibition at 0.1 µM [4] | SMILES
10% | -9% | 2% | 4% | Cc1cc(-c2ccc(F)cc2)c2[nH]c3c(c2c1)CN(C)CC3 [Compound A7]
 | 14% |  |  | Cc1cc2c3c(c1)c1c(n3CC2c2ccc(C)nc2)CCN(C)C1 (centres unmarked) [Compound B210]
